{
  "source": "paper PMC3012033",
  "about": "(Lipids in Health and Disease, 2010)",
  "key": {"[1]": {"system": "B16F10 mice melanoma cell line", "test": "B16F10 melanoma cell viability (MTT, Trypan Blue exclusion)", "type": "cell-based", "method": "B16F10 mice melanoma cell line was generously provided by Dr. Roger Chammas (USP, São Paulo, Brazil). Cells were routinely cultured in RPMI 1640 medium supplemented with 10% fetal bovine serum (FBS) at 37°C in a humidified atmosphere containing 5% CO2.\nTo dissolve the crystals of Formazan was used dimethylsulfoxide (DMSO). Quantification was obtained by the absorbance reading at a wavelength of 450 nm to 690 nm. Cell viability was also evaluated by the method of Trypan Blue exclusion (Invitrogen, Carlsbad, CA), by direct counting in a hemocytometer."}, "B16F10 melanoma": {"system": "B16F10 melanoma", "test": "Tumor growth and survival of B16F10 melanoma bearing mice", "type": "in vivo, C57Bl/6J mice", "method": "In vivo experiments were conducted in male C57BL/6J mice (18-25 g), housed at 22 ± 2°C under a 12/12 h light/dark cycle with free access to food and water until use. The animals were acclimatized to the laboratory for at least 24 h before testing and were used only once. All animal handling and experimental procedures were conducted with prior approval of the ethics committee on animal use of the University of São Paulo Medical School Hospital Ethics Committee.\nTo mice experimentations, the simvastatin compressed powders were macerated and watery solutions were made.\nAll animal's procedures were made in Butantan Institute with supervision of Dr. Durvanei Augusto Maria, in accordance with University of Sao Paulo Medical School Hospital Ethics Committee. Briefly, 5 × 10^4 B16F10 melanoma cells were injected subcutaneously into C57Bl/6J mice. […] Tumors were measured using a caliper and volume was estimated using the formula V = (small diameter)^2 × (large diameter)/¾ πR [13].\nTumor growth data were analyzed by Student's t test, survival rate data were analyzed by Kaplan-Meyer curves and hematological data were analyzed by one-way ANOVA with Tukey posttest using Graph Pad Prism Stat version 4.0 for Windows."}, "Blood cells evaluation": {"test": "Blood cells evaluation", "type": "in vivo, C57BL/6J mice", "details": "mean ± S.E.M., seven animals", "method": "(§1) C57BL/6J mice, weighing about 20 g and 60 days older were used. After the experiments, blood was collected from the axillary plexus. The bone marrow was collected from the femur of the same animals. The spleen cellularities were also analyzed.\nBlood samples were collected twenty days after tumor implant from the axillary plexus of the animals in all experimental groups, which were used to perform blood and reticulocyte count, according to the techniques used in the Laboratory of Experimental Hematology of FCF/USP [14]."}, "B16F10 melanoma cells": {"system": "B16F10 melanoma cells", "test": "Cell cycle analysis by flow cytometry (propidium iodide)", "type": "cell-based, mice", "details": "0.8 μM", "method": "Cell cycle analysis was determined by flow cytometry at the Federal State University of Paraná. Briefly, after the different treatments, 2 × 10^6 cells were trypsinized, washed three times with PBS, fixed in 70% ethanol, and stained with Propidium Iodide (PI) solution. All analyses were done using a FACScalibur flow cytometer (Becton Dickinson, San Jose, CA). The red fluorescence of PI was collected through a 585/42-nm band -pass filter, and the fluorescence signals were measured in a linear scale of 1024 channels. For each sample, at least 10000 events were acquired and the data were analyzed using an appropriate software (CELLQuest, Becton Dickinson, San Jose, CA)."}, "[2]": {"test": "Bone marrow and spleen cellularity", "type": "in vivo, C57BL/6J mice", "method": "as §1\nThe animals were first anesthetized, exsanguinated and sacrificed by cervical dislocation. The bone marrow was obtained by washing the cavity with the culture femoral McCoy's 5A modified (Sigma, Chemical Company, USA) ice cream.\nSleen cells were collected by the same sacrificed animals of hematological procedures. The spleen was transferred to plastic Petri dish with iced culture McCoy's 5A modified (Sigma, Chemical Company, USA) containing 10% EDTA, used to collect the cells. In the Petri dish, the spleen capsule was broken in one of its ends, with the aid of two needles bent into \"L\", and fixed in syringes. The cells were gently removed from the dish by the dissociation method. The suspension was homogenized in the Petri dish with standard Pasteur pipette to complete cell separation and transferred to conical plastic tube and kept in an ice bath. The cells obtained from the spleen were quantified in a Neubauer chamber hemocytometer after dilution of 1:500 liquid Turk, diluent composed of 1% solution of glacial acetic acid. For morphological evaluation, the slides were performed in cell suspension cellspin cytocentrifuge (Incibras) and subsequently submitted to the staining of May-Grunwald GIENS, modified by Rosenfeld, and peroxidase method modified by Graham Knoll, for identification and quantification of different types cell."}, "[3]": {"details": "melanoma bearing mice (Tumor-Simvastatin), twenty days after implant"}, "[4]": {"details": "mice without tumor (Control-Simvastatin)"}, "[5]": {"details": "mice bearing melanoma treated with same doses"}, "[6]": {"details": "mice without tumor (Control-Simvastatin), vs control"}},
  "data": [
    {"smiles": "CCC(C)(C)C(=O)O[C@H]1C[C@@H](C)C=C2C=C[C@H](C)[C@H](CC[C@@H]3C[C@@H](O)CC(=O)O3)[C@H]21", "note": "[simvastatin, Simvastatin]", "values": [
      {"measurement": "toxic effect on B16F10 cells", "setting": "[1]; 0.8 μM", "result": "toxic effect"},
      {"measurement": "toxic effect on B16F10 cells", "setting": "[1]; 1.6 μM", "result": "toxic effect"},
      {"measurement": "toxicity (cell death) in the first 24 h of incubation", "setting": "[1]; 1.6 μM, first 24 h", "result": "massive death"},
      {"measurement": "number of viable cells, trypan blue assay", "setting": "[1]; cultured melanoma, after 48 hours, vs vehicle-treated", "result": "reduces the number of viable cells"},
      {"measurement": "final tumor sizing compared to the controls", "setting": "B16F10 melanoma; 5 mg/Kg/day orally for 10 days, started 10 days after inoculation", "result": 25, "unit": "%"},
      {"measurement": "treated mice with a survival of 28 days (Kaplan-Meyer)", "setting": "B16F10 melanoma; 5 mg/Kg/day orally, no survival mice of control group on day 24", "result": "Twenty-five percent"},
      {"measurement": "total tumoral regression", "setting": "B16F10 melanoma; melanoma bearing mice, tumor re-started to grow when treatment aborted", "result": "not developed"},
      {"measurement": "tumor inhibition (B16F10 tumor growth)", "setting": "B16F10 melanoma; over 10 days period", "result": "approximately 75%"},
      {"measurement": "Eosinophils", "setting": "Blood cells evaluation; [3]", "result": "8.5 ± 3.0", "unit": "%"},
      {"measurement": "Hemoglobin", "setting": "Blood cells evaluation; [3]", "result": "12.4 ± 1.2", "unit": "g/dL"},
      {"measurement": "Total Leukocytes", "setting": "Blood cells evaluation; [3]", "result": "3.9 ± 0.8 * 103/mm3"},
      {"measurement": "Eosinophils", "setting": "Blood cells evaluation; [4]", "result": "4.7 ± 1.4", "unit": "%"},
      {"measurement": "Hemoglobin", "setting": "Blood cells evaluation; [4]", "result": "12.8 ± 1.9", "unit": "g/dL"},
      {"measurement": "Total Leukocytes", "setting": "Blood cells evaluation; [4]", "result": "3.3 ± 0.1 * 103/mm3"},
      {"measurement": "cell cycle effect", "setting": "B16F10 melanoma cells; 24 hours", "result": "early cell cycle arrest in G0/G1"},
      {"measurement": "hypodiploid cells", "setting": "B16F10 melanoma cells; after G0/G1 arrest", "result": "increase of hypodiploid cells"},
      {"measurement": "Femoral Bone Marrow cellularity", "setting": "[2]; [5]", "result": "equal"},
      {"measurement": "Spleen cellularity", "setting": "[2]; [5]", "result": "equal"},
      {"measurement": "Femoral Bone Marrow cellularity", "setting": "[2]; [6]", "result": "decreased"},
      {"measurement": "Spleen cellularity", "setting": "[2]; [6]", "result": "decreased"}
    ]}
  ]
}
